In article doi:10.1101/2025.03.14.643303, “A genome-scale drug discovery pipeline uncovers new therapeutic targets and a unique p97 allosteric binding site in Schistosoma mansoni” (bioRxiv, 2025):
Entries after “also recorded” stand apart in the source; their conditions may differ. Read-outs that look alike come from different tables or passages of the source.

Legend:
adult S. mansoni worms [1] = experiment: Treatment of adult S. mansoni worms in culture with inhibitors (attachment to tissue culture substrate, morphology; single 10 μM and dose-response EC50); format: cell-based, Schistosoma mansoni; conditions: for effect on adult parasites: inhibitors of human targets; for effect on adult parasites / time to detachment of adult worms in culture / effect on adult worms: 10 μM; for EC50: Schistosoma mansoni, adult parasites, fraction of worms attached, 72 hours of drug treatment, in culture until D5, 50 μM - 10 nM, Suppl. Fig. 9C, read-out: S. mansoni EC50; for effect on adult worms: benzoxazole propiolamide series, treated 72 hours, monitored until D5
Description: Adult S. mansoni (NMRI strain) (6–7 weeks post-infection) worms were harvested from infected female Swiss Webster mice by hepatic portal vein perfusion using 37°C DMEM (Mediatech, Manassas, VA), 8% Horse Serum, and heparin.
Roughly 5 adult worm pairs were placed in 3mL Basch medium in a 12-well culture vessel, and incubated at 37°C, 5% CO2 for the length of the experiment. Compound was administered at D0, D1, and D2, media and drug refreshed every 24 hr. Worms were then allowed to remain in culture until D5, where a final assessment of worm attachment to tissue culture substate was made by light microscopy. Observations on movement and morphology were also recorded. A negative control (0.1% DMSO) and positive control (PZQ; 10 μM in 0.1% DMSO) were included in each experiment, and each experiment was repeated in triplicate for validation. For compounds that caused complete detachment in replicate experiments, the treatment was expanded to three concentrations (10 μM, 5 μM, and 1 μM) following the same treatment schedule and controls as detailed above. […] Each titration experiment was performed in triplicate according to the treatment regimen described above, using DMSO and PZQ as appropriate controls. Morphologies and motility were assessed by light microscopy, and dose-response curves were calculated using the primary readout of parasite attachment to tissue culture substrate in GraphPad Prism. […]
[…] Values were calculated using Prism.

[2] = target: S. mansoni p97 (Smp_018240) (Schistosoma mansoni, UniProt G4M0P7); experiment: biochemical
Sequence of S. mansoni p97 (Smp_018240) (G4M0P7 entry or part of it): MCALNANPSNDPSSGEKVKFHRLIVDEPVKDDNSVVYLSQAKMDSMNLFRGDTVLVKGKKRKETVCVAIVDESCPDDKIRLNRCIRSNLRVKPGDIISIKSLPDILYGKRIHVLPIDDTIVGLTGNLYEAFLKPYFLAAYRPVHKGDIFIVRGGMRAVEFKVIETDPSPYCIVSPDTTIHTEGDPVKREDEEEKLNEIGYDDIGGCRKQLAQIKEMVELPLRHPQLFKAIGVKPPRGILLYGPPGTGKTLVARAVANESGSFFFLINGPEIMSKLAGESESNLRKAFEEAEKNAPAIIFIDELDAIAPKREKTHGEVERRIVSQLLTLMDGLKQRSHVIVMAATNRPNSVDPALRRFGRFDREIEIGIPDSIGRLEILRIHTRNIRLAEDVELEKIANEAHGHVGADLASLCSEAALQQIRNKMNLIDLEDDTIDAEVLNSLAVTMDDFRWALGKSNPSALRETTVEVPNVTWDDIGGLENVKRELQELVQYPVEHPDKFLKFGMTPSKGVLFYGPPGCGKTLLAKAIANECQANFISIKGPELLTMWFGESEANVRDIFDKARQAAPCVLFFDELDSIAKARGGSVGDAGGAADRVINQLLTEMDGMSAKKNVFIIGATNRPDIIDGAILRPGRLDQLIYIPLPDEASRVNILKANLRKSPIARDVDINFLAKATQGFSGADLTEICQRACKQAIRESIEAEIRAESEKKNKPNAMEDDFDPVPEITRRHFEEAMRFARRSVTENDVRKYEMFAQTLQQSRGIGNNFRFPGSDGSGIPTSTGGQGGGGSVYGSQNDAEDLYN
Description: E. coli BL21 (DE3) containing the desired plasmid were grown in LB medium containing […] kanamycin while shaking at 37 °C to an OD600 of 0.6–0.8. The temperature was reduced to 18°C and 0.8 mM isopropyl-beta-D-thiogalactopyranoside (IPTG) was added. The bacterial culture was harvested 16hr later by centrifugation. The resulting pellet was suspended in 60 mL lysis buffer/2L bacterial culture [20 mM Tris (pH 7.4), 300 mM NaCl, 5 mM MgCl2, 20 mM imidazole, 1% Triton X-100, 1 mg/mL lysozyme, 10% glycerol, 3 mM β-mercaptoethanol, 0.2 mM PMSF, and protease inhibitor tablet (Roche)]. […] The lysate was centrifuged at 40,000 × rpm for 35 min at 4°C. The resulting supernatant was incubated with Ni-NTA beads equilibrated to lysis buffer for 1 hr at 4°C before being loaded onto a gravity column. The bead bed was washed with wash buffer [20 mM Tris (pH 7.4), 500 mM NaCl, 5 mM MgCl2, 40 mM imidazole, 0.05% Triton X-100, 10% glycerol, 3 mM β-mercaptoethanol, 0.2 mM PMSF, 0.001 mg/mL Aprotinin, and 0.002 mg/mL Leupeptin], then eluted in the same buffer with 250 mM imidazole in wash buffer. Fractions containing p97 were concentrated using Pierce Protein Concentrators (100k MWCO) and loaded onto a gel-filtration column (Superdex 200PG) and eluted using SEC buffer [20 mM Tris (pH 7.4), 180 mM NaCl, 5 mM MgCl2, and 10% glycerol] at 0.5 mL/min flow rate on a BioRad NGC Chromatography System. Fractions corresponding to an apparent molecular weight of 500 – 600 kDa were collected and analyzed by 4–20% SDS/PAGE to evaluate purity. Concentration was determined using a BSA standard. Fractions containing purified protein were aliquoted, snap frozen in liquid nitrogen, and stored at −80 °C until use.
For manual ATP consumption assays, 1 μM p97 was incubated with 1% DMSO or inhibitor (1% DMSO final) in assay buffer [50 mM Tris (pH 7.5), 20 mM MgCl2, 1 mM EDTA, 0.5 mM tris(2-carboxyethyl)phosphine (TCEP)] for 5 minutes prior to the addition of 20 μM ATP in a 384-well plate for a total reaction volume of 10 μL, and a final concentration of 500nM enzyme and 10 μM ATP. The reaction was allowed to proceed for 50 minutes at room temperature before adding equivalent volume of Kinase-Glo Plus reagent (Promega), and a further incubation of 10 minutes in the dark.
IC50 values were calculated using GraphPad Prism.

H. sapiens p97 (P55072) = target: T1, H. sapiens p97 (P55072) (Homo sapiens, UniProt P55072); experiment: p97 ATPase activity, ATP consumption assay (Kinase-Glo), IC50 / counter screen; format: biochemical
T1 construct: 6xHis (C); made in house; host or cells: E. coli BL21 (DE3)
T1 sequence (P55072 whole entry): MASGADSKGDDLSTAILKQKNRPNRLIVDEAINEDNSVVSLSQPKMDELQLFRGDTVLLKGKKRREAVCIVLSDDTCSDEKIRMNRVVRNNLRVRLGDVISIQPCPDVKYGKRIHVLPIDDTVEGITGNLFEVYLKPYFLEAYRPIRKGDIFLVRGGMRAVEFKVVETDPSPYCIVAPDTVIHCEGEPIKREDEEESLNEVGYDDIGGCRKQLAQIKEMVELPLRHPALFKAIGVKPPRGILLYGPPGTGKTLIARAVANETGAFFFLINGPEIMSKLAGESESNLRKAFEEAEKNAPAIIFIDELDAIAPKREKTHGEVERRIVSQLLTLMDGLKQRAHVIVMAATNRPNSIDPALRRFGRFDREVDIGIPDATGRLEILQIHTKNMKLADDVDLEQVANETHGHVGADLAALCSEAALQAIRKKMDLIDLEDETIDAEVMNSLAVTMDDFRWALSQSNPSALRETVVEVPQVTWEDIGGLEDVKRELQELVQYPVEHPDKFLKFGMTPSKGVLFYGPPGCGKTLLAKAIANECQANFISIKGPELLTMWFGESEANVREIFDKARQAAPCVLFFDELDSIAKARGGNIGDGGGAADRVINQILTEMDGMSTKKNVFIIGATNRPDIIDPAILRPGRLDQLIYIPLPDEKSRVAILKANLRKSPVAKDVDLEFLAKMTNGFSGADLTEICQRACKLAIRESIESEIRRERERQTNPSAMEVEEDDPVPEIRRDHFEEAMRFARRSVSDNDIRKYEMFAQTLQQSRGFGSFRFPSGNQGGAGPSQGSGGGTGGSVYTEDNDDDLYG

[3] = system: K48 polyubiquitinated proteins; experiment: Western blot of drug-treated worm lysate with K48-linkage specific polyubiquitin antibody; format: cell-based, Schistosoma mansoni; conditions: worm lysate after 48 hr of treatment
Description: For drug treatment studies, 10 male adult worms (single or paired with females) were supplemented with either 0.1% DMSO or inhibitor (0.1% DMSO final). […]. After 48 hr, male parasites were separated from females using 0.25% tricaine in Basch Media 169, flash frozen in liquid nitrogen, and stored at −80°C until further processing. Male worm samples were homogenized with a pestle in 50 μL lysis buffer containing 2X sample buffer [0.471 M Tris (pH 6.7 with phosphoric acid), 20% glycerol, 5% SDS), protease inhibitor cocktail (Roche, cOmplete Mini, EDTA-free Tablets) and 10 mM DTT. The lysates were then sonicated on high for 5 min (30 sec on, 30 sec off) using a Bioruptor UCD-200. Lysates were centrifuged for 5 min at 10,000 g to remove debris. Total protein was measured using the Detergent Compatible Bradford Assay (Pierce). 50 μg of protein samples denatured in SDS Sample buffer (95°C for 5 min) were separated on a Bio-Rad 4–20% TGX Stain-Free gel along with Precision Plus Protein Dual Color Standards (Bio-Rad) as a marker. Proteins were then transferred to a nitrocellulose membrane (Bio-Rad). The membrane was blocked in a 1:5 solution of Li-Cor Odyssey Blocking buffer in PBST for 1 hr before being immunoblotted overnight at 4°C with 1:500 K48-linkage Specific Polyubiquitin Antibody (Cell Signaling Technology, 4289S) and 0.01 μg/mL mouse anti-actin antibody (1:10,000) (Developmental Studies Hybridoma Bank, JLA20) diluted in a 1:5 solution of Li-Cor Odyssey Blocking buffer in PBST. The membrane was washed 3x in TBST and then incubated in 1:5 Li-Cor Odyssey Blocking buffer containing the secondary antibodies (1:10,000 Li-Cor, 925–68071, goat anti-rabbit IRDye 680 RD, and 1:20,000 Li-Cor, 925–32280, goat anti-mouse IgM IRDye 800CW) for 1 hr at RT. The blot was washed in TBST 3x before being imaged on a LiCor Odyssey Infrared Imager.

HepG2 cells = experiment: HepG2 cytotoxicity assay (Cell Titer Glo 2.0); format: cell-based, human; conditions: Homo sapiens
Description: HepG2 cells (ATCC) were plated at 2500 cells/well in 50 μL/well, dispersing cells using a 25g needle to break up clumps prior to plating. Plates were incubated for 24hr at 37C, 5% CO2. Following 24hr, 50 μL media containing 0.6% DMSO was added to a set of wells on one plate. The plate and Cell Titer Glo 2.0 reagent were brought to RT. A T=0 read was taken by adding 40 μL reagent/well, rocking the plate at 100 rpm for 2 min, then reading luminescence ~10 min later. […] 50 μL 2x concentrated compound was added to wells containing cells in 50 μL 24 hr after plating. Concentrations were tested in triplicate at following values: 30, 10, 3.3, 1.1, 0.37, 0.12, and 0.04 μM. Plates were incubated for 72 hr at 37C, 5% CO2. Following equilibration to room temperature, 40 μL undiluted reagent was added to each well, the plate rocked at 100 rpm for 2 min and then read for luminescent signal ~10 min later.
Values are plotted in excel and the 50% point determined by interpolation. Values were revisualized in Prism.

[4] = system: S. mansoni vcp/p97 (Smp_018240); experiment: High-throughput screening (HTS) assay, Kinase-Glo, 10 μM single concentration; format: biochemical, Schistosoma mansoni; conditions: 10 μM compound; normalized to CB-5083; Fig. 4A
Excerpt: Kinase-Glo (Promega, part K1214) was purchased from Promega. Microtiter plates (384 wells) were purchased from Perkin Elmer. All chemicals included in the UTSW library were sourced from commercial sources [ChemDiv (150,000 compounds), ChemBridge (125,500), ComGenex (22,000), Prestwick Chemical, (1,100) and TimTec (500)] or UT Southwestern chemists (https://www.utsouthwestern.edu/research/core-facilities/high-throughput-screening/libraries/). For initial screening, compounds were dispensed by Echo 555 robot for a final concentration of 10 μM (0.2% DMSO). Luminescence was read by EnVision multimode plate reader (Perkin-Elmer). Assay conditions were consistent between manual and high-throughput assays [10 μM ATP, 50 mM Tris (pH 7.5), 20 mM MgCl2, 1 mM EDTA, 0.5 mM tris(2-carboxyethyl)phosphine (TCEP)]. The plates were then incubated for 50 min at room temperature before addition of Kinase-Glo reagent and further incubation in the dark for 10 minutes before reading luminescence. […] Hit compounds were validated using a dose-response curve (19.8 μM, 9.92 μM, 4.96 μM, 3.72 μM, 2.48 μM, 1,24 μM, 0.619 μM, 0.342 μM, 0.256 μM, 0.171 μM, 0.0854 μM, 0.0427 μM, and 0 μM) in triplicate. Compounds were also subjected to a counter screen using a dose-response curve against the full-length human p97 enzyme to determine preliminary selectivity.

adult S. mansoni worms [5] = system: adult S. mansoni worms; set-up: method as in PMID 32973031; conditions: schistosomes in vitro; cited from earlier work
[6] = recombinant enzyme, Kinase-Glo, Fig. 3D, read-out: S. mansoni (IC50)
[7] = recombinant enzyme, Kinase-Glo, Fig. 3D
[8] = Hs p97, 100 μM – 1 nM, Suppl. Fig. 9C

Compound: c1ccc(CNc2nc(NCc3ccccc3)c3ccccc3n2)cc1 [DbeQ, reference compound]
- effect on adult parasites (adult S. mansoni worms [1]): activity on the worms
- IC50 [2, 6]: 12 µM
- IC50 (H. sapiens p97 (P55072); [7]): 0.91 ± 0.39 µM
- accumulation of K48 polyubiquitinated proteins by western blot [3]: did not observe the same accumulation

Compound: CC1(C)C(N(O)C(=O)Nc2ccc(Cl)cc2)N(c2ccc(Cl)cc2)C(=O)N1CC(=O)N/N=C/C=C/c1ccc([N+](=O)[O-])o1 (stereo not drawn) [Eeyarestatin I, reference compound]
- effect on adult parasites (adult S. mansoni worms [1]): effective
- accumulation of K48 polyubiquitinated proteins by western blot [3]: did not see significant increases in K48 abundance

Compound: O=C(C#Cc1ccncc1)Nc1ccc2oc(-c3ccccn3)nc2c1 [Compound 739, N-(2-(pyridin-2-yl)benzo[d]oxazol-5-yl)-3-(pyridin-4-yl)propiolamide]
- time to detachment of adult worms in culture (adult S. mansoni worms [1]): ≤ 24 h
- EC50 (adult S. mansoni worms [1]): 1.3 µM
- effect on adult worms (adult S. mansoni worms [1]): death of the parasites
- Fold Selectivity ([2]; H. sapiens vs S. mansoni p97 IC50, Suppl. Fig. 9C): 2.1
- IC50 ([2]; schistosome p97 enzyme, read-out: IC50): 0.15 µM
- IC50 (H. sapiens p97 (P55072); [8]): 0.32 ± 0.026 µM
- accumulation of K48 polyubiquitinated proteins by western blot [3]: accumulation of K48 polyubiquitin moieties
- GI50 (HepG2 cells; HepG2, 72 h): 0.85 µM
- IC50 (HepG2 cells; HepG2, 72 h): 1.2 µM
- GI50 (HepG2 cells; HepG2, read-out: HepG2 GI50): 0.85 µM
- IC50 (HepG2 cells; HepG2, read-out: HepG2 IC50): 1.2 µM

Compound: CC(C)N1CCN(CCNC2CCN(c3cccc(-c4cc5cc(F)ccc5[nH]4)c3)CC2)CC1 [UPCDC-30245, reference compound]
- effect on adult parasites (adult S. mansoni worms [1]): effective
- selectivity between schistosome and human p97 [2]: selective in favor of the human enzyme; also recorded: decreased potency
- IC50 [2, 6]: 4.1 µM
- IC50 (H. sapiens p97 (P55072); [7]): 0.97 ± 0.067 µM
- accumulation of K48 polyubiquitinated proteins by western blot [3]: did not see significant increases in K48 abundance

Compound: COc1cccc2c(NCc3ccccc3)nc(-n3c(N)nc4ccccc43)nc12 [ML240, reference compound]
- effect on adult parasites (adult S. mansoni worms [1]): killed parasites quickly
- selectivity for the schistosome enzyme over its human counterpart [2]: ~ 5 fold
- IC50 [2, 6]: 0.066 ± 0.0097 µM
- IC50 (H. sapiens p97 (P55072); [7]): 0.33 ± 0.061 µM
- accumulation of K48 polyubiquitinated proteins by western blot [3]: did not observe the same accumulation

Compound: O=C(C#Cc1ccccc1)Nc1ccc2oc(-c3ccccn3)nc2c1 [Compound 243, 3-phenyl-N-(2-(pyridin-2-yl)benzo[d]oxazol-5-yl)propiolamide]
- time to detachment of adult worms in culture (adult S. mansoni worms [1]): ≤ 48 h
- EC50 (adult S. mansoni worms [1]): 3.5 µM
- effect on adult worms (adult S. mansoni worms [1]): led to death in adult parasites; also recorded: ultimately leading to their death
- Fold Selectivity [2]: 9.5
- IC50 ([2]; Sm p97, 100 μM – 1 nM, Suppl. Fig. 9C, read-out: S. mansoni IC50): 2.1 ± 0.75 µM
- IC50 ([2]; Smp97, re-tested screen compounds, 100 μM-1 nM, Fig. 4A, read-out: S. mansoni IC50): 2.1 ± 0.75 µM
- IC50 ([2]; p97 enzyme, Suppl. Fig. 11D, read-out: S. mansoni IC50): 2.1 ± 0.75 µM
- IC50 ([2]; recombinant parasite enzyme, 100 μM-1 nM, Fig. 4D, read-out: S. mansoni IC50): 2.1 ± 0.75 µM
- IC50 (H. sapiens p97 (P55072); [8]): 20 ± 0.54 µM
- IC50 (H. sapiens p97 (P55072); Hsp97, re-tested screen compounds, 100 μM-1 nM, Fig. 4A): 20 ± 0.54 µM
- IC50 (H. sapiens p97 (P55072); p97 enzyme, Suppl. Fig. 11D): 20 ± 0.54 µM
- IC50 (H. sapiens p97 (P55072); recombinant human enzyme, 100 μM-1 nM, Fig. 4D): 20 ± 0.54 µM
- Screen Inhibition [4]: 46%
- GI50 (HepG2 cells; HepG2, 72 h): 5.6 µM
- IC50 (HepG2 cells; HepG2, 72 h): 9.6 µM
- GI50 (HepG2 cells; HepG2, read-out: HepG2 GI50): 5.6 µM
- IC50 (HepG2 cells; HepG2, read-out: HepG2 IC50): 9.6 µM

Compound: CC(C)C[C@H](NC(=O)[C@H](Cc1ccccc1)NC(=O)c1cnccn1)B(O)O [bortezomib]
- parasite death in vitro (adult S. mansoni worms [5]): killed
